This is an account of results in US12617773B2, “Azetidin-3-ylmethanol derivatives as CCR6 receptor modulators” (Idorsia Pharmaceuticals Ltd, priority 2020, dated 2026).

The target of this assay is T1, human CCR6 (Homo sapiens, UniProt P51684).
T1 construct: expressed in transfected cells; host or cells: HEK-293
T1 sequence (P51684 1-374): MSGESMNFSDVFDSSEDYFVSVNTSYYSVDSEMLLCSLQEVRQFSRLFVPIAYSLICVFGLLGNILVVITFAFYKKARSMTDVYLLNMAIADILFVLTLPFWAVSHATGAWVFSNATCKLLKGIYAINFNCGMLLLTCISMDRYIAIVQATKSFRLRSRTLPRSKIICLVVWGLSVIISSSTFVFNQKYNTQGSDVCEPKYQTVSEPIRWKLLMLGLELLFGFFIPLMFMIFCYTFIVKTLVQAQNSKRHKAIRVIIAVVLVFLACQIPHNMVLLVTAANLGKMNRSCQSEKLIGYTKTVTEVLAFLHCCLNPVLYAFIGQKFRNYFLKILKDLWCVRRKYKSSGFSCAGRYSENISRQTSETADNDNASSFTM
Briefly: FLIPR assay (inhibition of CCL20-induced calcium signal). The format is cell-based. The conditions noted are these: HEK-293 cells expressing human CCR6; mean values where determined several times; read-out: FLIPR IC50. The method, then:
FLIPR assay: The bioactivity of compounds is tested in a fluorometric imaging plate reader (FLIPR: Molecular Devices) using engineered HEK-293 cells expressing the human CCR6 (GenBank: AY242126). Frozen cells are plated on Poly-L-Lysine precoated 384-well plates 2 days prior to bioassay in DMEM medium supplemented with 10% FCS and 1% Penicillin-Streptomycin. […] This buffer, but lacking the dye, is also used for washing and compound dilution steps (assay buffer). Cells are washed free of excess dye with a wash-station (Biotek), leaving 40 microliter of assay buffer at the end. Cells were incubated for 15 minutes at room temperature in the dark, before adding compounds. Stock solutions of test compounds are made up at a concentration of 10 mM in DMSO, and serially diluted first in DMSO and then transferred in assay buffer to concentrations required for inhibition dose response curves. After a 45-minute incubation period in assay buffer at room temperature, 10 microliters of each compound dilution are transferred from a compound plate to the plate containing the recombinant cells in the FLIPR instrument according to the manufacturer's instructions. After cells and compounds were preincubated for 30 minutes at room temperature in the dark, 10 microliter agonist CCL20 (Peprotech) at a final concentration of 10 nM is added, again using the FLIPR instrument. Changes in fluorescence are monitored before and after addition of the test compounds and agonist. Emission peak values above base level after CCL20 addition are exported after base line subtraction.
The calculated IC50 values may fluctuate depending on the daily assay performance. Fluctuations of this kind are known to those skilled in the art.
`CC(C)c1ccc([C@](O)(c2cncc(CC[C@@H](C)O)c2)C2(C)CN(C)C2)cc1` [Example 52]: the IC50 amounted to 0.2 µM.

On to `CC(C)c1ccc([C@](O)(c2cncc(-c3noc(CC4CCOCC4)n3)c2)C2(C)CN(C)C2)cc1` [Example 110], for which the 50% inhibitory concentration (IC50) turned out to be 0.0391 µM.

As to `CCc1cncc([C@@](O)(c2ccc(C(C)C)cc2)C2(C)CN(C)C2)c1` [Example 301, (R)-(1,3-Dimethyl-azetidin-3-yl)-(5-ethyl-pyridin-3-yl)-(4-isopropyl-phenyl)-methanol], the IC50 was determined as 0.06 µM.

For `COc1ccc(C(C)(O)C#Cc2cncc([C@@](O)(c3ccc(C(C)C)cc3)C3(C)CN(C)C3)c2)cc1` (some centres unmarked) [Example 33], the 50% inhibitory concentration (IC50) was 0.0208 µM.

For the compound `CC(C)c1ccc([C@](O)(c2cncc(-c3noc([C@@](C)(O)C(F)(F)F)n3)c2)C2(C)CN(C)C2)cc1` [Example 117], the half-maximal inhibitory concentration (IC50) is 0.0201 µM.

`CC(C)c1ccc([C@](O)(c2cncc(C(=O)N3CCCC3)c2)C2(C)CN(C)C2)cc1` [Example 307]: the IC50 came out at 0.567 µM.

As for `CC(C)c1ccc([C@](O)(c2cncc(N3CC4(CCCC4)OC3=O)c2)C2(C)CN(C)C2)cc1` [Example 198], the IC50 was determined as 0.0708 µM.

As to `CC(C)c1ccc([C@](O)(c2cnnc(OC3CCCC3(C)C)c2)C2(C)CN(C)C2)cc1` (stereo partly drawn) [Example 392, (R)-(1,3-Dimethyl-azetidin-3-yl)-[6-(2,2-dimethyl-cyclopentyloxy)-pyridazin-4-yl]-(4-isopropyl-phenyl)-methanol], the IC50 is 0.0242 µM.

Regarding `CC(C)c1ccc(C(O)(c2ccnc(N3CCOCC3)c2)C2(C)CN(C)C2)cc1` (centres unmarked) [Example 276], the half-maximal inhibitory concentration (IC50) stood at 0.413 µM.

On to `CC(C)c1ccc([C@](O)(c2cncc(CCc3cnn(C)c3)c2)C2(C)CN(C)C2)cc1` [Example 58], for which the IC50 was 0.44 µM.

On to `CC(C)c1ccc([C@](O)(c2cnnc(Oc3ccccc3CCO)c2)C2(C)CN(C)C2)cc1` [Example 394, 2-(2-{5-[(R)-(1,3-Dimethyl-azetidin-3-yl)-hydroxy-(4-isopropyl-phenyl)-methyl]-pyridazin-3-yloxy}-phenyl)-ethanol], for which the IC50 turned out to be 1.04 µM.

Turning to `CC(=O)N1CCC(c2nc(-c3cncc([C@@](O)(c4ccc(C(C)C)cc4)C4(C)CN(CC(F)F)C4)c3)no2)CC1` [Example 579, 1-[4-(3-{5-[(R)-[1-(2,2-Difluoro-ethyl)-3-methyl-azetidin-3-yl]-hydroxy-(4-isopropyl-phenyl)-methyl]-pyridin-3-yl}-[1,2,4]oxadiazol-5-yl)-piperidin-1-yl]-ethanone], the IC50 came to 0.411 µM.

On to `COc1nc(C)cc(C(C)(O)C#Cc2cncc([C@@](O)(c3ccc(C(C)C)cc3)C3(C)CN(C)C3)c2)n1` (single isomer, unassigned) [Example 629], for which the IC50 is 0.0609 µM.

Take `CC(C)c1ccc([C@](O)(c2cncc(N3CC(F)(F)OC(F)(F)C3)c2)C2(C)CN(C)C2)cc1` [Example 235]: the IC50 was found to be 0.0234 µM.

For `CC(C)c1ccc([C@](O)(c2cncc(-c3noc(CN4CCNC4=O)n3)c2)C2(C)CN(C)C2)cc1` [Example 493], the half-inhibitory concentration (IC50) was found to be 0.185 µM.

Consider `CC(C)c1ccc([C@](O)(c2cncc(CCc3ccccc3CO)c2)C2(C)CN(C)C2)cc1` [Example 410], for which the IC50 was 0.0849 µM.

On to `CC(C)c1ccc([C@](O)(c2cncc(COC3CCCC3)c2)C2(C)CN(C)C2)cc1` [Example 426, (R)-(5-Cyclopentyloxymethyl-pyridin-3-yl)-(1,3-dimethyl-azetidin-3-yl)-(4-isopropyl-phenyl)-methanol], for which the IC50 worked out at 0.0177 µM.

As for `CC(C)c1ccc([C@](O)(c2cncc(CCC(C)(O)c3ncccn3)c2)C2(C)CN(C)C2)cc1` (some centres unmarked) [Example 73], the IC50 is 0.112 µM.

As to `CC(C)c1ccc([C@](O)(c2cncc(C3=COCC3)c2)C2(C)CN(C)C2)cc1` [Example 303, (R)-[5-(4,5-Dihydro-furan-3-yl)-pyridin-3-yl]-(1,3-dimethyl-azetidin-3-yl)-(4-isopropyl-phenyl)-methanol], the half-inhibitory concentration (IC50) came out at 0.0307 µM.

Regarding `CC(=O)N1CCC(c2nc(-c3cncc([C@@](O)(c4ccc(C(C)C)cc4)C4(C)CN(C(C)C)C4)c3)no2)CC1` [Example 578, 1-[4-(3-{5-[(R)-Hydroxy-(1-isopropyl-3-methyl-azetidin-3-yl)-(4-isopropyl-phenyl)-methyl]-pyridin-3-yl}-[1,2,4]oxadiazol-5-yl)-piperidin-1-yl]-ethanone], the IC50 came out at 0.0972 µM.

As for `CC(C)c1ccc([C@](O)(c2cnnc(N3CCC(C(C)C)C3=O)c2)C2(C)CN(C)C2)cc1` (some centres unmarked) [Example 433], the concentration for half-maximal inhibition (IC50) stood at 0.0585 µM.

On to `CC(C)c1ccc([C@](O)(c2cncc(-c3noc(C(C)(C)N4CCOCC4)n3)c2)C2(C)CN(C)C2)cc1` [Example 346], for which the IC50 was found to be 0.0625 µM.

As to `CCC(O)(CCc1cncc([C@@](O)(c2ccc(C(C)C)cc2)C2(C)CN(C)C2)c1)c1cc(C)ncn1` (stereo partly drawn) [Example 408, 1-{5-[(R)-(1,3-Dimethyl-azetidin-3-yl)-hydroxy-(4-isopropyl-phenyl)-methyl]-pyridin-3-yl}-3-(6-methyl-pyrimidin-4-yl)-pentan-3-ol], the half-maximal inhibitory concentration (IC50) was found to be 0.138 µM.

Regarding `CC(C)c1ccc([C@](O)(c2cncc(-c3noc(C(C)(C)CO)n3)c2)C2(C)CN(C)C2)cc1` [Example 135], the half-maximal inhibitory concentration (IC50) was 0.074 µM.

In the case of `CC(C)c1ccc([C@](O)(c2cnnc(N3CC(c4ccccc4)CC3=O)c2)C2(C)CN(C)C2)cc1` (some centres unmarked) [Example 443], the IC50 is 0.0353 µM.

With `CC(C)c1ccc([C@](O)(c2cncc(-c3noc(C4CCN(C)C(=O)C4)n3)c2)C2(C)CN(C)C2)cc1` (some centres unmarked) [Example 347], the IC50 worked out at 0.12 µM.

For `CC(C)c1ccc([C@](O)(c2cncc(C3CCOC3)c2)C2(C)CN(C)C2)cc1` (stereo partly drawn) [Example 304, (R)-(1,3-Dimethyl-azetidin-3-yl)-(4-isopropyl-phenyl)-[5-(tetrahydro-furan-3-yl)-pyridin-3-yl]-methanol], the IC50 stood at 0.385 µM.

`CC(C)c1ccc([C@](O)(c2cncc(C#CC(C)(O)C(F)(F)F)c2)C2(C)CN(C)C2)cc1` (some centres unmarked) [Example 587]: the IC50 stood at 0.0148 µM.

On to `CC(C)c1ccc([C@](O)(c2cncc(COc3ccc(F)cc3)c2)C2(C)CN(C)C2)cc1` [Example 324, (R)-(1,3-Dimethyl-azetidin-3-yl)-[5-(4-fluoro-phenoxymethyl)-pyridin-3-yl]-(4-isopropyl-phenyl)-methanol], for which the IC50 is 0.015 µM.

As to `CN1CC(C)([C@](O)(c2ccc(C3(C(F)(F)F)CC3)cc2)c2cncc(N3C[C@@H](F)[C@@H](F)C3)c2)C1` [Example 185], the half-inhibitory concentration (IC50) came to 0.0279 µM.

Consider `CC(C)c1ccc([C@](O)(c2cncc(C3CCOCC3)c2)C2(C)CN(C)C2)cc1` [Example 314], for which the 50% inhibitory concentration (IC50) amounted to 0.111 µM.

`CN1CC(C)([C@](O)(c2ccc(C3CC3)cc2)c2cncc(-c3nc(COC4CCC4)no3)c2)C1` [Example 84]: the IC50 turned out to be 0.0528 µM.

`CC(C)c1ccc([C@](O)(c2cncc(C#CC(C)(C)N3CCNC3=O)c2)C2(C)CN(C)C2)cc1` [Example 594]: the 50% inhibitory concentration (IC50) turned out to be 0.0454 µM.

On to `CC(C)c1ccc([C@](O)(c2cncc(C#CC3(c4ccccn4)CC3)c2)C2(C)CN(C)C2)cc1` [Example 634], for which the concentration for half-maximal inhibition (IC50) was found to be 0.0406 µM.

Consider `CC(=O)N1CCC(c2nc(-c3cncc([C@@](O)(c4ccc(C(C)C)cc4)C4(C)CN(C5CC5)C4)c3)no2)CC1` [Example 450], for which the IC50 was 0.0578 µM.

Turning to `CC(C)c1ccc([C@](O)(c2cncc(-c3nc(N4CCOCC4)no3)c2)C2(C)CN(C)C2)cc1` [Example 94, (R)-(1,3-Dimethyl-azetidin-3-yl)-(4-isopropyl-phenyl)-[5-(3-morpholin-4-yl-[1,2,4]oxadiazol-5-yl)-pyridin-3-yl]-methanol], the IC50 is 0.0711 µM.

For `COCCc1nc(-c2cncc([C@@](O)(c3ccc(C(C)C)cc3)C3(C)CN(C)C3)c2)no1` [Example 104], the IC50 turned out to be 0.0422 µM.

For `CC(C)c1ccc([C@](O)(c2cncc(C3CCC(C)(C)O3)c2)C2(C)CN(C)C2)cc1` (some centres unmarked) [Example 320], the half-inhibitory concentration (IC50) was found to be 0.086 µM.

Turning to `CCCc1ccc([C@](O)(c2cncc(-c3nc(COC4CCOCC4)no3)c2)C2(C)CN(C)C2)cc1` [Example 85], the IC50 amounted to 0.0899 µM.

As to `CCN1CC(C)([C@](O)(c2ccc(C(C)C)cc2)c2cncc(-c3noc(CC(C)(C)O)n3)c2)C1` [Example 338, 1-(3-{5-[(R)-(1-Ethyl-3-methyl-azetidin-3-yl)-hydroxy-(4-isopropyl-phenyl)-methyl]-pyridin-3-yl}-[1,2,4]oxadiazol-5-yl)-2-methyl-propan-2-ol], the IC50 stood at 0.0938 µM.

Consider `COCC(=O)NC(C)(C)Cc1nc(-c2cncc([C@@](O)(c3ccc(C(C)C)cc3)C3(C)CN(C)C3)c2)no1` [Example 465], for which the IC50 is 0.0875 µM.

The IC50 is the midpoint of a concentration-inhibition curve.
